Measured values: US11814352B2, “Salts formed by 2-(1-acyloxy-n-pentyl) benzoic acid and basic amino acid or aminoguanidine, and preparation method and application thereof” (JIANGSU KANION PHARMACEUTICAL CO., LTD., priority 2018, dated 2023)
Read-outs that look alike come from different tables or passages of the source. Marks after values point to notes of the source that are not given here.

Key:
[1] = tested on: AA induced platelet aggregation; assay: In vitro anti-platelet aggregation, AA induced (turbidimetry, PRP); assay type: cell-based, rabbits
Experimental: (§1) The animals were used for experiments after 1 week.
(§2) The common carotid artery was separated, and a polyethylene tube was inserted into the common carotid artery to collect blood. […] The upper beige suspension was pipetted to obtain the platelet-rich plasma (PRP). […] The PRP was adjusted with the PPP to make the platelet count at 1×10^8/mL.
(§3) 260 μL of platelet-rich plasma (PRP) was added into a turbidimetric tube. Then 10 μL of test compounds with different concentrations, positive control drugs or normal saline were separately added, and the plasma was incubated at 37° C. for 5 min. Then 30 μL of inducers were added in sequence. The final concentration of an inducer ADP is 10 μM, and the final concentration of an inducer AA is 1 mM. […] Inhibition rate of platelet aggregation (IRPA)=(platelet aggregation rate of the control group−platelet aggregation rate of the experimental group)/platelet aggregation rate of the control group×100%.

[2] = tested on: ADP induced platelet aggregation; assay: In vitro anti-platelet aggregation, ADP induced (turbidimetry, PRP); assay type: cell-based, rabbits
Experimental: as §1, §2, §3

[3] = tested on: arteriovenous bypass thrombosis in rats; assay: Effect on arteriovenous bypass thrombosis in rats; assay type: in vivo, SD rats; conditions: 10 mg/kg/day tail vein 7 days; for Dry weight of thrombus / Wet weight of thrombus: 2 h after last dose; for inhibition at 10 mg/kg/day: Rattus norvegicus, 168 h
Experimental: Male SD rats, weighing 250-280 g, purchased from Beijing Vital River Laboratory Animal Technology Co., Ltd., raised in an SPF breeding environment with indoor temperature controlled at 23±2° C., and allowed to freely eat and drink. The total number of the animals is 64.
Model group: injected with the same volume of normal saline (containing 1% DMSO) through the tail vein, and administered continuously for 7 days. The test was started 2 h after the last dose (n=8).
The dose of all drugs was 10 mg/kg/day. The drugs were formulated into normal saline solutions containing 1% DMSO, and injected through the tail vein for 7 consecutive days. The test was started 2 hours after the last dose (n=8).
The rats were intraperitoneally injected with a 3% pentobarbital sodium solution (30 mg/kg). After anesthesia, the rats were immobilized in the supine position, and a median cervical incision was made to separate the right common carotid artery and left external jugular vein. A 6 cm long suture was put in the middle of a polyethylene tube (the suture needs to be weighed before being put in the tube), and the polyethylene tube was filled with heparin saline (50 U/mL). The polyethylene tube was inserted into the separated blood vessels to make the artery and vein form a loop. After 15 min of circulation of the blood flow, the suture was taken out, and the suture with thrombus was collected and weighed immediately. Then, after the suture was dried at room temperature for 24 h, the dry weight was determined. The total weight minus the weight of the suture was the wet weight of the thrombus, and the dry weight minus the weight of the suture was the dry weight of the thrombus.

MCAO rats = assay: Cerebral infarction, cerebral edema and nerve function of rats with focal cerebral ischemia (MCAO); assay type: in vivo, SD rats; conditions: for inhibition at 10 mg/kg/day: Rattus norvegicus
Experimental: The total number of the animals was 88.
Sham operation group: equal volume of normal saline (containing 1% DMSO) (iv. 3 days), TTC, cerebral edema and neurological function score (n=8); […]
The middle cerebral arteries of the rats were blocked by a suture-occluded method, and reperfused after 2 h. […] All drugs were formulated into normal saline solutions containing 1% DMSO for administration, and the duration of administration was controlled at approximately 1 min. […] 2 h after the last administration, the neurological defect scores were firstly obtained, and then the rats of each group were sacrificed. The whole brains were taken out and weighed (wet weight), TTC stained, and dried to determine the effects of the compounds on cerebral infarction and cerebral edema.
2 h after the last administration, the neurological defects of the animals were graded and scored by the Longa's method.
After the neurobehavioral examination was completed, four coronal incisions were made on the whole brains of the rats on the optic chiasma and 2 mm anteroposterior positions of the optic chiasma. After the whole brains were cut into five slices, the brain slices were quickly placed in 5 ml of phosphate buffer solution containing 2% TTC, and incubated at 37° C. in the dark. In the incubation process, the brain slices were turned once every 5 min. After 10 min of incubation, the brain slices were taken out and pictures were taken with a digital camera (Olympus C-4000, Japan).
The calculation formula of brain water content is as follows: Water content of brain tissue (%)=(wet weight of brain tissue−dry weight of brain tissue)/wet weight of brain tissue×100%; Cerebral edema rate (%)=water content of brain tissue of each group (%)−water content of brain tissue of sham operation group (%)/water content of brain tissue of sham operation group (%)×100%; Inhibition rate of cerebral edema (%)=(rate of cerebral edema of model group (%)−rate of cerebral edema of administration group (%))/rate of cerebral edema of model group (%)×100%.

[4] = Oryctolagus cuniculus, Platelet, read-out: IC50 AA (1 mM), rabbit PRP, inducer AA 1 mM, 37° C.
[5] = Oryctolagus cuniculus, Platelet, read-out: IC50 ADP (10 μM), rabbit PRP, inducer ADP 10 μM, 37° C.
[6] = read-out: IC50 AA (1 mM), rabbit PRP, inducer AA 1 mM, 37° C.
[7] = read-out: IC50 ADP (10 μM), rabbit PRP, inducer ADP 10 μM, 37° C.
[8] = MCAO rats, 10 mg/kg/day iv 3 days (combinations equimolar), first dose 2 h after reperfusion
[9] = iv 2 h after the beginning of reperfusion, 5 mg/kg
[10] = iv 2 h after the beginning of reperfusion, 10 mg/kg
[11] = iv 2 h after the beginning of reperfusion, 20 mg/kg
[12] = iv at the beginning of reperfusion, 5 mg/kg
[13] = iv at the beginning of reperfusion, 10 mg/kg
[14] = iv at the beginning of reperfusion, 20 mg/kg
[15] = vs model group, read-out: Inhibition rate (dry weight of thrombus)
[16] = vs model group, read-out: Inhibition rate (wet weight of thrombus)
[17] = MCAO rats, 10 mg/kg/day iv 3 days (combinations equimolar), first dose 2 h after reperfusion, read-out: Inhibition rate of cerebral edema
[18] = MCAO rats, 10 mg/kg/day iv 3 days (combinations equimolar), first dose 2 h after reperfusion, read-out: Inhibition rate of infarct volume

## N=C(N)NCCC[C@H](N)C(=O)O [L-arginine]
[1]; [4]
  IC50: 5130 ± 650 µM
[2]; [5]
  IC50: 5860 ± 690 µM

## CCCCC(OC(C)=O)c1ccccc1C(=O)O.N=C(N)NCCC[C@H](N)C(=O)O (racemic) [I1, L-Arginine (R/S)-2-(1-Acetoxy-n-Pentyl) Benzoate]
[3]
  Dry weight of thrombus: 7.64 ± 0.40
  Wet weight of thrombus: 25.81 ± 2.20**^
[3]; vs model group
  Inhibition rate (dry weight of thrombus): 23.94%
  Inhibition rate (wet weight of thrombus): 28.72%
[1]; [6]
  IC50: 180 ± 30 µM
[2]; [7]
  IC50: 740 ± 90 µM
MCAO rats; [8]
  Cerebral edema: 4.97 ± 3.30%
  Infarct volume: 16.11 ± 2.74%
  Inhibition rate of cerebral edema: 69.00%
  Inhibition rate of infarct volume: 61.50%

## CCCCC(OC(C)=O)c1ccccc1C(=O)O.N[C@@H](Cc1c[nH]cn1)C(=O)O (racemic) [I6, L-Histidine (R/S)-2-(1-Acetoxy-n-Pentyl) Benzoate]
[1]; [6]
  IC50: 140 ± 10 µM
[2]; [7]
  IC50: 770 ± 50 µM

## CCCCC(O)c1ccccc1C(=O)O.N=C(N)NCCC[C@H](N)C(=O)O (racemic) [AHPB, L-Arginine (R/S)-2-(1-Hydroxy-n-Pentyl) Benzoate]
[1]; [6]
  IC50: 340 ± 40 µM
[2]; [7]
  IC50: 980 ± 210 µM
MCAO rats; [9]
  Cerebral edema: 6.50 ± 1.86%
  Infarct volume: 37.54 ± 6.94%
  Inhibition rate of cerebral edema: 31.12%
  Inhibition rate of infarct volume: 24.34%
MCAO rats; [10]
  Cerebral edema: 3.03 ± 2.87%
  Infarct volume: 25.70 ± 4.75%
  Inhibition rate of cerebral edema: 67.94%
  Inhibition rate of infarct volume: 48.19%
MCAO rats; [11]
  Cerebral edema: 1.64 ± 3.36%
  Infarct volume: 23.56 ± 5.29%
  Inhibition rate of cerebral edema: 82.57%
  Inhibition rate of infarct volume: 52.51%
MCAO rats; [12]
  Cerebral edema: 5.94 ± 2.45%
  Infarct volume: 29.98 ± 4.99%
  Inhibition rate of cerebral edema: 38.82%
  Inhibition rate of infarct volume: 39.06%
MCAO rats; [13]
  Cerebral edema: 2.01 ± 2.91%
  Infarct volume: 19.83 ± 3.95%
  Inhibition rate of cerebral edema: 79.34%
  Inhibition rate of infarct volume: 59.69%
MCAO rats; [14]
  Cerebral edema: 2.08 ± 4.58%
  Infarct volume: 17.71 ± 4.65%
  Inhibition rate of cerebral edema: 78.57%
  Inhibition rate of infarct volume: 64.00%
MCAO rats; low-dose 5 mg/kg iv, at reperfusion or 2 h after
  Effects of improving cerebral infarction, cerebral edema and neurological function compared with NBP (5 mg/kg): no significant difference
MCAO rats; middle and high doses 10, 20 mg/kg iv
  Improving the neurological function compared with NBP (5 mg/kg): equivalent to NBP (5 mg/kg)

## CCCC[C@@H](OC(C)=O)c1ccccc1C(=O)O [I1r, L-Arginine (R)-2-(1-Acetoxy-n-Pentyl) Benzoate]
[3]
  Dry weight of thrombus: 8.51 ± 0.18
[3]; [15]
  inhibition at 10 mg/kg/day: 15.2%
[3]; [16]
  inhibition at 10 mg/kg/day: 18.4%
[1]; [6]
  IC50: 180 ± 30 µM
[2]; [7]
  IC50: 730 ± 70 µM
MCAO rats; [8]
  Cerebral edema: 10.72 ± 4.19%
  Infarct volume: 20.14 ± 2.95%
MCAO rats; [17]
  inhibition at 10 mg/kg/day: 33.2%
MCAO rats; [18]
  inhibition at 10 mg/kg/day: 51.9%

## CCCCC(OC(=O)CCC)c1ccccc1C(=O)O (racemic) [I3, L-Arginine (R/S)-2-(1-N-Butyryloxy-n-Pentyl) Benzoate]
[1]; [4]
  IC50: 520 ± 30 µM
[2]; [5]
  IC50: 1260 ± 70 µM

## CCCCC(OC(=O)CC)c1ccccc1C(=O)O (racemic) [I2, L-Arginine (R/S)-2-(1-Propionyloxy-n-Pentyl) Benzoate]
[1]; [4]
  IC50: 190 ± 20 µM
[2]; [5]
  IC50: 650 ± 40 µM

## CCCCC(OC(C)=O)c1ccccc1C(=O)O (racemic) [(R/S)-APB, (R/S)-2-(1-acetoxy-n-pentyl)benzoic acid]
[1]; [6]
  IC50: 470 ± 40 µM
[2]; [7]
  IC50: 810 ± 40 µM

## CCCCC(OC(C)=O)c1ccccc1C(=O)O.N=C(N)NN (racemic) [I7, Aminoguanidine (R/S)-2-(1-Acetoxy-n-Pentyl) Benzoate]
[1]; [6]
  IC50: 280 ± 70 µM
[2]; [7]
  IC50: 1180 ± 60 µM

## CC1=NN(c2ccccc2)C(=O)C1 [Edaravone]
[3]
  Dry weight of thrombus: 8.23 ± 0.53
  Wet weight of thrombus: 24.95 ± 1.20
[3]; [15]
  inhibition at 10 mg/kg/day: 18.1%
[3]; [16]
  inhibition at 10 mg/kg/day: 31.1%
MCAO rats; [8]
  Cerebral edema: 4.49 ± 4.84%
  Infarct volume: 14.29 ± 2.58%
MCAO rats; [17]
  inhibition at 10 mg/kg/day: 72%
MCAO rats; [18]
  inhibition at 10 mg/kg/day: 65.8%

## CCCC[C@@H](OC(C)=O)c1ccccc1C(=O)O.N=C(N)NN [I7r, Aminoguanidine (R)-2-(1-Acetoxy-n-Pentyl) Benzoate]
[1]; [6]
  IC50: 210 ± 10 µM
[2]; [7]
  IC50: 940 ± 50 µM

## CCCC[C@H](OC(C)=O)c1ccccc1C(=O)O.N=C(N)NN [I7s, Aminoguanidine (S)-2-(1-Acetoxy-n-Pentyl) Benzoate]
[1]; [6]
  IC50: 120 ± 10 µM
[2]; [7]
  IC50: 680 ± 30 µM
MCAO rats; [8]
  Cerebral edema: 12.34 ± 4.57%
  Infarct volume: 24.83 ± 2.02%
  Inhibition rate of cerebral edema: 23.07%
  Inhibition rate of infarct volume: 40.67%

## CCCCC(OC(C)=O)c1ccccc1C(=O)O (racemic) [I5, L-Lysine (R/S)-2-(1-Acetoxy-n-Pentyl) Benzoate]
[1]; [4]
  IC50: 460 ± 30 µM
[2]; [5]
  IC50: 1150 ± 80 µM

## CCCC[C@@H](OC(C)=O)c1ccccc1C(=O)O [(R)-APB, (R)-2-(1-acetoxy-n-pentyl)benzoic acid]
[1]; [4]
  IC50: 190 ± 20 µM
[2]; [5]
  IC50: 760 ± 70 µM

## CCCC[C@H]1OC(=O)c2ccccc21 [(R)-NBP, (R)-butylphthalide]
[1]; [6]
  IC50: 660 ± 70 µM
[2]; [7]
  IC50: 1600 ± 150 µM

## CCCCC(OC(=O)c1ccccc1)c1ccccc1C(=O)O (racemic) [I4, L-Arginine (R/S)-2-(1-Benzoyloxy-n-Pentyl) Benzoate]
[1]; [6]
  IC50: 170 ± 70 µM
[2]; [7]
  IC50: 820 ± 50 µM
